Measured values published in PMC5356007, “A conserved inter-domain communication mechanism regulates the ATPase activity of the AAA-protein Drg1” (Scientific Reports, 2017).
Changes are numbered by the printed parent chain. Where two headings read alike, the source gives them in different places.

Tests used:
Drg1 [1] = biological target: T1, Drg1 (Saccharomyces cerevisiae, UniProt P32794, K292A); experiment: differential scanning fluorimetry; assay type: binding; conditions: read-out: Kd(ATP)
T1 construct: gene AFG2; full-length type II AAA-ATPase, N-terminal GST-tag with PreScission site (plasmids derived from pAZ7), expressed in yeast from CUP1 promoter; Walker A mutants KA1 (K292A) and KA2 (K563A); hexamer in presence of nucleotide
T1 sequence (P32794 1-780 K292A): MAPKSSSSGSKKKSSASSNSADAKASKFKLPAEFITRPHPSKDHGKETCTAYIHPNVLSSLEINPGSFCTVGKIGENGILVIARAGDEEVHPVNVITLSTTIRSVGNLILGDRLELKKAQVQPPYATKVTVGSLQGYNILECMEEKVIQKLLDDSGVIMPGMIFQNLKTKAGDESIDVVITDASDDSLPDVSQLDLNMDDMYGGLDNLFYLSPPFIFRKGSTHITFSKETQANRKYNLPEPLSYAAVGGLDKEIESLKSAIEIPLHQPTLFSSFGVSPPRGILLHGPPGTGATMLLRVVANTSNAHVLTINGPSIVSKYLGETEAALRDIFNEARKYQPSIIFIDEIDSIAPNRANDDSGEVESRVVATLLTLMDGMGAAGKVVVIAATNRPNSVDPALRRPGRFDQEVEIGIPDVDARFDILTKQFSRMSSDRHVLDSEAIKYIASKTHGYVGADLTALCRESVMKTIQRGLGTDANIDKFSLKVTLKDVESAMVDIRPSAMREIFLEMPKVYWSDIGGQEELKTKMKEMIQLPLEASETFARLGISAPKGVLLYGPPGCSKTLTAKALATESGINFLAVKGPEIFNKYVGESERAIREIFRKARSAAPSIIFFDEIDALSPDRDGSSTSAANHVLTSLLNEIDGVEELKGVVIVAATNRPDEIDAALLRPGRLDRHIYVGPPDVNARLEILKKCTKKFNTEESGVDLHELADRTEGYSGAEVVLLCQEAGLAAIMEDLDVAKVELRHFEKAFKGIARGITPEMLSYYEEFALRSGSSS

Drg1 [2] = biological target: T2, Drg1 (Saccharomyces cerevisiae, UniProt P32794, K563A); experiment: differential scanning fluorimetry; assay type: binding
T2 construct: gene AFG2; full-length type II AAA-ATPase, N-terminal GST-tag with PreScission site (plasmids derived from pAZ7), expressed in yeast from CUP1 promoter; Walker A mutants KA1 (K292A) and KA2 (K563A); hexamer in presence of nucleotide
T2 sequence (P32794 1-780 K563A): T1 sequence (P32794 1-780 K292A) with A292K, K563A

| Kd (Drg1 [1]) | Kd (Drg1 [2]; read-out: Kd(ATP)) | Kd (Drg1 [2]; read-out: Kd(ADP)) | SMILES |
| --- | --- | --- | --- |
| ~80 µM | ~20 µM |  | Nc1ncnc2c1ncn2[C@@H]1O[C@H](COP(=O)(O)OP(=O)(O)OP(=O)(O)O)[C@@H](O)[C@H]1O [ATP] |
|  |  | ~120 µM | Nc1ncnc2c1ncn2[C@@H]1O[C@H](COP(=O)(O)OP(=O)(O)O)[C@@H](O)[C@H]1O [ADP] |
